Reference: ChEMBL document CHEMBL3596184, “Prostate tumor specific peptide-peptoid hybrid prodrugs” (2015)
Numbered stars: 1 amine (or outer) side, 2 acyl side, 3 side chain; on linkers, the order of the positions; unused ones are H or OH. Square brackets hold non-standard residues; d marks the D form. Peptide text beside a SMILES is read from it. γGlu = O=C(O)[C@H](CCC(=O)[*:2])N[*:1]; Nspe = C[C@H](NCC(=O)O)c1ccccc1; Nlys = NCCCCNCC(=O)O

How the values were obtained:
Assay type in all cases: functional
PC-3 = assay: Cytotoxicity against human PC3 cells assessed as induction of cell death after 48 hrs by MTS assay; conditions: PC-3, 48 h, read-out: LC50 (the source's name)
LNCaP [1] = assay: Selectivity ratio of LC50 for human PC3 cells to LC50 for human LNCaP cells
LNCaP [2] = assay: Cytotoxicity against human LNCAP cells assessed as induction of cell death after 48 hrs by MTS assay; conditions: read-out: LC50 (the source's name)

CC(C)C[C@H](NC(=O)[C@H](CCCCN)NC(=O)[C@H](CO)NC(=O)[C@H](CO)NC(=O)[C@H](Cc1cnc[nH]1)NC(=O)CC[C@H](NC(=O)CC[C@H](N)C(=O)O)C(=O)O)C(=O)N[C@@H](CCC(N)=O)C(=O)N(CCCCN)CC(=O)N(CC(=O)N(CC(=O)N(CCCCN)CC(=O)N(CC(=O)N(CC(=O)N(CCCCN)CC(=O)N(CC(=O)N(CC(=O)N(CCCCN)CC(=O)N(CC(=O)N(CC(N)=O)[C@@H](C)c1ccccc1)[C@@H](C)c1ccccc1)[C@@H](C)c1ccccc1)[C@@H](C)c1ccccc1)[C@@H](C)c1ccccc1)[C@@H](C)c1ccccc1)[C@@H](C)c1ccccc1)[C@@H](C)c1ccccc1 ({γGlu-γGlu}-HSSKLQ[Nlys][Nspe][Nspe][Nlys][Nspe][Nspe][Nlys][Nspe][Nspe][Nlys][Nspe][Nspe]-NH2)
CC50 (PC-3): 18 µM
RatioLC50 (LNCaP [1]): 1.8
CC50 (LNCaP [2]): 10 µM

C[C@@H](c1ccccc1)N(CC(N)=O)C(=O)CN(C(=O)CN(CCCCN)C(=O)CN(C(=O)CN(C(=O)CN(CCCCN)C(=O)CN(C(=O)CN(C(=O)CN(CCCCN)C(=O)CN(C(=O)CN(C(=O)CN(CCCCN)C(=O)CC[C@H](NC(=O)CC[C@H](N)C(=O)O)C(=O)O)[C@@H](C)c1ccccc1)[C@@H](C)c1ccccc1)[C@@H](C)c1ccccc1)[C@@H](C)c1ccccc1)[C@@H](C)c1ccccc1)[C@@H](C)c1ccccc1)[C@@H](C)c1ccccc1 ({γGlu-γGlu}-[Nlys][Nspe][Nspe][Nlys][Nspe][Nspe][Nlys][Nspe][Nspe][Nlys][Nspe][Nspe]-NH2)
CC50 (PC-3): 18 µM
RatioLC50 (LNCaP [1]): 1.8
CC50 (LNCaP [2]): 10 µM
